# Assay results from patent US9975884B2, “Kojic acid-derived mannich bases with biological effect” (priority 2015, dated 2018).
# Where two headings read alike, the source gives them in different places.
# Experiments:
# [1] = target: tyrosinase; format: biochemical
# [2] = system: M. avium (ATCC 15769); assay: Antimycobacterial activity; format: cell-based, Mycobacterium avium; details: for MIC: Mycobacterium avium
# [3] = DPPH free radical scavenging effect; details: 1000 μg/ml
# [4] = Metal chelation effect; details: for iron chelation effect: dose amount of 1000 μg/ml
# [5] = Iron reduction antioxidant power (FRAP); details: 1000 μg/ml
# [6] = Phosphomolybdenum reduction antioxidant power (PRAP); details: for Phosphomolybdenum Reduction Antioxidant Power (Absorbance at 600 nm ± S.S): 1000 μg/ml
# [7] = DMPD radical scavenging effect; details: 1000 μg/ml
# [8] = system: collagenase; assay: Collagenase enzyme inhibition; format: biochemical
# Description: Physical properties of the compounds such as efficiency of synthesis reactions and melting points are determined. […] Antidermatophytic activity of the compounds against Trichophyton mentagrophytes var. erinacei, Epidermophyton floccosum and Microsporum gypseum as well as their antimycobacterial activity against Mycobacterium tuberculosis H37Rv (ATCC 27294) and M. avium (ATCC 15769) are analyzed under non-toxic concentrations using MRC-5 and He-La cell lines. Antityrosinase activity thereof is determined by spectrophotometric method using L-DOPA as a substrate. Antioxidant activity is determined by the methods of 2,2-diphenyl-1-picrilhydrasil (DPPH), N,N-dimethyl-p-phenylenediamine (DMPD) radical scavenging activity, metal chelation effect, iron-(FRAP), phosphomolybdenum-(PRAP) reducing antioxidant power. Elastase and collagenase enzyme inhibitions are performed to determine anti-aging activity. Due to their antityrosinase, antioxidant, anti-aging, antidermatophytic and antimycobacterial effects, the compounds may be used in medicine, cosmeceutical, food and textile industry.
# [9] = system: elastase; assay: Elastase enzyme inhibition; format: biochemical
# [10] = Solubility in solvents; format: physicochemical
# Description: Melting point: 180-1<*>C, Yield: 90%. White powder crystals. Insoluble in water, low-solubility in methanol, ethanol and acetone, and soluble in chloroform.
# Melting point 196-7° C., Yield: 93%. White powder crystals. Insoluble in water, methanol, ethanol and acetone, but soluble in chloroform.
# [11] = ATCC15769, value column 8 of the table, read-out: MIC against M. avium
Molecule,DPPH Free Radical Scavenging Effect (Scavenging % ± S.S) [3] [%],Metal Chelation Effect (Chelation % ± S.S) ([4]; 1000 μg/ml) [%],Iron Reduction Antioxidant Power (Absorbance at 700 nm ± S.S) [5],antioxidant power of phosphomolybdenum structure [6] [µg/mL],Phosphomolybdenum Reduction Antioxidant Power (Absorbance at 600 nm ± S.S) [6],DMPD Radical Scavenging Effect (Scavenging % ± S.S) [7] [%],Collagenase Enzyme Inhibition (Inhibition % ± S.S) ([8]; 1000 μg/ml-Stock) [%],elastase enzyme inhibition [9],other results
O=c1cc(CO)oc(CN2CCN(Cc3ccc(Cl)c(Cl)c3)CC2)c1O [Compound of Formula 1],14.59 ± 2.52,67.57 ± 1.30,0.274 ± 0.003,0.154 ± 0.004,0.154 ± 0.004,36.05 ± 3.11,15.57 ± 2.24,No elastase enzyme inhibition is detected,"IC50 (tyrosinase) [1]: 11 ± 1 µg/mL; Low-dose antityrosinase activity ([1]; 0.0025 mg/ml): 23.63 ± 1.65; Low-dose antityrosinase activity ([1]; 0.005 mg/ml): 37.81 ± 0.54; Low-dose antityrosinase activity ([1]; 0.01 mg/ml): 51.25 ± 1.09; Low-dose antityrosinase activity ([1]; 0.025 mg/ml): 56.79 ± 0.44; Low-dose antityrosinase activity ([1]; 0.05 mg/ml): 70.62 ± 1.62; Low-dose antityrosinase activity ([1]; 0.1 mg/ml): 73.57 ± 4.81; Low-dose antityrosinase activity ([1]; 0.25 mg/ml): 80.63 ± 2.01; antityrosinase effect, times higher than kojic acid ([1]; relative to kojic acid): 6 times; MIC [2, 11]: 2 µg/mL; iron chelation effect [4]: 67.57±1.30%; solubility in chloroform [10]: soluble; solubility in methanol, ethanol and acetone [10]: low-solubility; solubility in water [10]: Insoluble; melting point: 180 to 181 °C"
NNC(=O)c1ccncc1 [Isoniazide],–,–,–,–,–,–,–,–,"MIC [2, 11]: 0.125 µg/mL"
"O=C(O)CN(CCN(CC(=O)O)CC(=O)O)CC(=O)O [EDTA, ethylenediaminetetraacetic acid]",–,–,–,–,–,–,–,–,Metal Chelation Effect (Chelation % ± S.S) ([4]; 2000 μg/ml): 97.66±0.12%
"O=c1cc(CO)occ1O [Kojic Acid, Kojic acid]",22.51 ± 2.65,8.89 ± 0.75,0.757 ± 0.026,0.103 ± 0.006,0.103 ± 0.006,41.86 ± 1.10,15.18 ± 5.92,No elastase enzyme inhibition is detected,"Low-dose antityrosinase activity ([1]; 0.025 mg/ml): 18.65 ± 1.33; Low-dose antityrosinase activity ([1]; 0.05 mg/ml): 44.74 ± 0.53; Low-dose antityrosinase activity ([1]; 0.1 mg/ml): 61.28 ± 2.03; Low-dose antityrosinase activity ([1]; 0.25 mg/ml): 77.44 ± 0.68; MIC ([2]; ATCC15769, read-out: MIC against M. avium): 16 µg/mL"
"O=c1c(O)c(-c2ccc(O)c(O)c2)oc2cc(O)cc(O)c12 [Quercetin, quercetin]",91.14 ± 0.65,–,2.015 ± 0.032,–,0.320 ± 0.005,–,–,–,–
"O=C(O[C@@H]1Cc2c(O)cc(O)cc2O[C@@H]1c1cc(O)c(O)c(O)c1)c1cc(O)c(O)c(O)c1 [EGCG, epigallocatechin gallate]",–,–,–,–,–,–,–,–,Collagenase Enzyme Inhibition (Inhibition % ± S.S) ([8]; 15 mM): 44.64 ± 2.87%
"3-Hydmxy-6-(hydmxymethyl)-2-[{4-(2,6 diclorobenzyl)piperazme-1-il]methyl-4H-pyran-4-one [Compound of Formula 2]",12.20 ± 1.72,58.17 ± 0.99,0.217 ± 0.002,0.187 ± 0.017,0.187 ± 0.017,24.94 ± 1.64,12.40 ± 4.57,No elastase enzyme inhibition is detected,"MIC against M. avium [2]: 2 µg/mL; iron chelation effect [4]: 58.17±0.99%; solubility in chloroform [10]: soluble; solubility in methanol, ethanol and acetone [10]: Insoluble; solubility in water [10]: Insoluble"
O=C1O[C@H]([C@@H](O)CO)C(O)=C1O [Ascorbic acid],–,–,–,–,–,69.58 ± 0.71,–,–,–
